Assay results from ChEMBL document CHEMBL4340528, “Profiling withanolide A for therapeutic targets in neurodegenerative diseases” (Bioorg Med Chem, 2019).

Tests used:
SH-SY5Y [1] = test: Induction of neurite outgrowth in human SH-SY5Y cells assessed as increase in neurite length of more than 50 micrometer by measuring cell differentiation at 1 uM incubated for 6 days by Giemsa staining based phase contrast microscopic analysis relative to control; type: functional
[2] = target: Mitochondrial antiviral-signaling protein (Homo sapiens) (UniProt Q7Z434); conditions: A549, Lysate
Description: Binding affinity to MAVS in human A549 cells lysates grown on SILAC media at 10 uM incubated for 1 hr by LC-MS/MS analysis relative to untreated control

[3] = target: Ubiquitin carboxyl-terminal hydrolase 5 (Homo sapiens) (UniProt P45974); conditions: A549, Lysate
Description: Binding affinity to USP5 in human A549 cells lysates grown on SILAC media at 10 uM incubated for 1 hr by LC-MS/MS analysis relative to untreated control

[4] = target: NPC intracellular cholesterol transporter 1 (Homo sapiens) (UniProt O15118); conditions: A549, Lysate
Description: Binding affinity to NPC1 in human A549 cells lysates grown on SILAC media at 10 uM incubated for 1 hr by LC-MS/MS analysis relative to untreated control

[5] = target: T1, 1,25-dihydroxyvitamin D(3) 24-hydroxylase, mitochondrial (Homo sapiens, UniProt Q07973); test: Binding affinity to CYP24A1 in human A549 cells lysates grown on SILAC media at 10 uM incubated for 1 hr by LC-MS/MS analysis; type: subcellular, Lysate; conditions: a549, 1 h
T1 sequence (Q07973 whole entry): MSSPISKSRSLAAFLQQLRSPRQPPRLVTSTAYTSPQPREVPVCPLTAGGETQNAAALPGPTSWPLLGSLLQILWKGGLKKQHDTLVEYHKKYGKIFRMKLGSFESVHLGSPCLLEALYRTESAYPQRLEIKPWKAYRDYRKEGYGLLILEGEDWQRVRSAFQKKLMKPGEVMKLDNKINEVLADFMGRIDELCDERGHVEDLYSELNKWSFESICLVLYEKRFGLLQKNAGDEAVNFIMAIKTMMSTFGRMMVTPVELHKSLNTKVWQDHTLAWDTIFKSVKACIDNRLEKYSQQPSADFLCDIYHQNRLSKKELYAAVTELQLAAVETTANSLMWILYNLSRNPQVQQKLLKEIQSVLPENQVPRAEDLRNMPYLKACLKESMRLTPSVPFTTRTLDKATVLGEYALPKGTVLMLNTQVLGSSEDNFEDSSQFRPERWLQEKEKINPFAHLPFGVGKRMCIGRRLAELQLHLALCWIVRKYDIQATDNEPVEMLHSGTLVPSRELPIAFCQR

[6] = target: Ubiquitin carboxyl-terminal hydrolase 10 (Homo sapiens) (UniProt Q14694); conditions: A549, Lysate
Description: Binding affinity to USP10 in human A549 cells lysates grown on SILAC media at 10 uM incubated for 1 hr by LC-MS/MS analysis relative to untreated control

[7] = target: Antigen peptide transporter 1 (Homo sapiens) (UniProt Q03518); conditions: A549, Lysate
Description: Binding affinity to TAP1 in human A549 cells lysates grown on SILAC media at 10 uM incubated for 1 hr by LC-MS/MS analysis relative to untreated control

[8] = target: Glutathione S-transferase omega-1 (Homo sapiens) (UniProt P78417); conditions: A549, Lysate
Description: Binding affinity to GSTO1 in human A549 cells lysates grown on SILAC media at 10 uM incubated for 1 hr by LC-MS/MS analysis relative to untreated control

[9] = target: Histidine--tRNA ligase, cytoplasmic (Homo sapiens) (UniProt P12081); conditions: A549, Lysate
Description: Binding affinity to HARS in human A549 cells lysates grown on SILAC media at 10 uM incubated for 1 hr by LC-MS/MS analysis relative to untreated control

[10] = target: Non-selective voltage-gated ion channel VDAC3 (Homo sapiens) (UniProt Q9Y277); conditions: A549, Lysate
Description: Binding affinity to VDAC3 in human A549 cells lysates grown on SILAC media at 10 uM incubated for 1 hr by LC-MS/MS analysis relative to untreated control

[11] = target: Cytoskeleton-associated protein 4 (Homo sapiens) (UniProt Q07065); conditions: A549, Lysate
Description: Binding affinity to CKAP4 in human A549 cells lysates grown on SILAC media at 10 uM incubated for 1 hr by LC-MS/MS analysis relative to untreated control

[12] = target: Glucocorticoid receptor (Homo sapiens) (UniProt P04150); conditions: A549, Lysate
Description: Binding affinity to NR3C1 in human A549 cells lysates grown on SILAC media at 10 uM incubated for 1 hr by LC-MS/MS analysis relative to untreated control

[13] = target: Trifunctional enzyme subunit beta, mitochondrial (Homo sapiens) (UniProt P55084); conditions: A549, Lysate
Description: Binding affinity to HADHB in human A549 cells lysates grown on SILAC media at 10 uM incubated for 1 hr by LC-MS/MS analysis relative to untreated control

[14] = target: T1, 1,25-dihydroxyvitamin D(3) 24-hydroxylase, mitochondrial; test: Binding affinity to CYP24A1 in human A549 cells lysates grown on SILAC media at 10 uM incubated for 1 hr by LC-MS/MS analysis relative to untreated control; type: subcellular, Lysate; conditions: a549, 1 h
SH-SY5Y [15] = test: Induction of neurite outgrowth in human SH-SY5Y cells assessed as increase in neurite length of more than 50 micrometer by measuring cell differentiation at 1 uM in presence of mifepristone incubated for 6 days by Giemsa staining based phase contrast microscopic analysis relative to control; type: functional
[16] = target: Prostaglandin E synthase 2 (Homo sapiens) (UniProt Q9H7Z7); conditions: A549, Lysate
Description: Binding affinity to PTGES2 in human A549 cells lysates grown on SILAC media at 10 uM incubated for 1 hr by LC-MS/MS analysis relative to untreated control

[17] = target: Non-selective voltage-gated ion channel VDAC2 (Homo sapiens) (UniProt P45880); conditions: A549, Lysate
Description: Binding affinity to VDAC2 in human A549 cells lysates grown on SILAC media at 10 uM incubated for 1 hr by LC-MS/MS analysis relative to untreated control

[18] = target: von Willebrand factor (Homo sapiens) (UniProt P04275); conditions: A549, Lysate
Description: Binding affinity to VWF in human A549 cells lysates grown on SILAC media at 10 uM incubated for 1 hr by LC-MS/MS analysis relative to untreated control

[19] = target: Mitochondrial import receptor subunit TOM40 homolog (Homo sapiens) (UniProt O96008); conditions: A549, Lysate
Description: Binding affinity to TOMM40 in human A549 cells lysates grown on SILAC media at 10 uM incubated for 1 hr by LC-MS/MS analysis relative to untreated control

[20] = target: Neutral cholesterol ester hydrolase 1 (Homo sapiens) (UniProt Q6PIU2); conditions: A549, Lysate
Description: Binding affinity to NCEH1 in human A549 cells lysates grown on SILAC media at 10 uM incubated for 1 hr by LC-MS/MS analysis relative to untreated control

[21] = target: Carnitine O-palmitoyltransferase 1, liver isoform (Homo sapiens) (UniProt P50416); conditions: A549, Lysate
Description: Binding affinity to CPT1A in human A549 cells lysates grown on SILAC media at 10 uM incubated for 1 hr by LC-MS/MS analysis relative to untreated control

[22] = target: Sarcoplasmic/endoplasmic reticulum calcium ATPase 2 (Homo sapiens) (UniProt P16615); conditions: A549, Lysate
Description: Binding affinity to ATP2A2 in human A549 cells lysates grown on SILAC media at 10 uM incubated for 1 hr by LC-MS/MS analysis relative to untreated control

[23] = target: Minor histocompatibility antigen H13 (Homo sapiens) (UniProt Q8TCT9); conditions: A549, Lysate
Description: Binding affinity to HM13 in human A549 cells lysates grown on SILAC media at 10 uM incubated for 1 hr by LC-MS/MS analysis relative to untreated control

[24] = target: Heme oxygenase 2 (Homo sapiens) (UniProt P30519); conditions: A549, Lysate
Description: Binding affinity to HMOX2 in human A549 cells lysates grown on SILAC media at 10 uM incubated for 1 hr by LC-MS/MS analysis relative to untreated control

[25] = target: Reticulon-4 (Homo sapiens) (UniProt Q9NQC3); conditions: A549, Lysate
Description: Binding affinity to RTN4 in human A549 cells lysates grown on SILAC media at 10 uM incubated for 1 hr by LC-MS/MS analysis relative to untreated control

[26] = target: Mitochondrial carrier homolog 2 (Homo sapiens) (UniProt Q9Y6C9); conditions: A549, Lysate
Description: Binding affinity to MTCH2 in human A549 cells lysates grown on SILAC media at 10 uM incubated for 1 hr by LC-MS/MS analysis relative to untreated control

SH-SY5Y [27] = test: Induction of neurite outgrowth in human SH-SY5Y cells assessed as increase in neurite length of more than 50 micrometer by measuring cell differentiation at 1 uM in presence of dexamethasone incubated for 6 days by Giemsa staining based phase contrast microscopic analysis relative to control; type: functional
[28] = target: G patch domain-containing protein 8 (Homo sapiens) (UniProt Q9UKJ3); conditions: A549, Lysate
Description: Binding affinity to GPATCH8 in human A549 cells lysates grown on SILAC media at 10 uM incubated for 1 hr by LC-MS/MS analysis relative to untreated control

[29] = target: Isocitrate dehydrogenase [NADP] cytoplasmic (Homo sapiens) (UniProt O75874); conditions: A549, Lysate
Description: Binding affinity to IDH1 in human A549 cells lysates grown on SILAC media at 10 uM incubated for 1 hr by LC-MS/MS analysis relative to untreated control

[30] = target: Glutathione S-transferase 3, mitochondrial (Homo sapiens) (UniProt O14880); conditions: A549, Lysate
Description: Binding affinity to MGST3 in human A549 cells lysates grown on SILAC media at 10 uM incubated for 1 hr by LC-MS/MS analysis relative to untreated control

[31] = target: Transcription intermediary factor 1-beta (Homo sapiens) (UniProt Q13263); conditions: A549, Lysate
Description: Binding affinity to TRIM28 in human A549 cells lysates grown on SILAC media at 10 uM incubated for 1 hr by LC-MS/MS analysis relative to untreated control

[32] = target: Heat shock protein beta-1 (Homo sapiens) (UniProt P04792); conditions: A549, Lysate
Description: Binding affinity to HSPB1 in human A549 cells lysates grown on SILAC media at 10 uM incubated for 1 hr by LC-MS/MS analysis relative to untreated control

[33] = target: Heterogeneous nuclear ribonucleoprotein F (Homo sapiens) (UniProt P52597); conditions: A549, Lysate
Description: Binding affinity to HNRNPF in human A549 cells lysates grown on SILAC media at 10 uM incubated for 1 hr by LC-MS/MS analysis relative to untreated control

[34] = target: Aldehyde dehydrogenase 1A1 (Homo sapiens) (UniProt P00352); conditions: A549, Lysate
Description: Binding affinity to ALDH1A1 in human A549 cells lysates grown on SILAC media at 10 uM incubated for 1 hr by LC-MS/MS analysis relative to untreated control

[35] = target: Serine/threonine-protein kinase greatwall (Homo sapiens) (UniProt Q96GX5); conditions: A549, Lysate
Description: Binding affinity to MASTL in human A549 cells lysates grown on SILAC media at 10 uM incubated for 1 hr by LC-MS/MS analysis relative to untreated control

[36] = target: MKI67 FHA domain-interacting nucleolar phosphoprotein (Homo sapiens) (UniProt Q9BYG3); conditions: A549, Lysate
Description: Binding affinity to MKI67 in human A549 cells lysates grown on SILAC media at 10 uM incubated for 1 hr by LC-MS/MS analysis relative to untreated control

[37] = target: Cytochrome b5 type B (Homo sapiens) (UniProt O43169); conditions: A549, Lysate
Description: Binding affinity to CYB5B in human A549 cells lysates grown on SILAC media at 10 uM incubated for 1 hr by LC-MS/MS analysis relative to untreated control

[38] = target: Keratin, type II cuticular Hb1 (Homo sapiens) (UniProt Q14533); conditions: A549, Lysate, pooled result: one value given for 5 cell lines, strains, targets or settings
Description: Binding affinity to KRT81 in human A549 cells lysates grown on SILAC media at 10 uM incubated for 1 hr by LC-MS/MS analysis relative to untreated control

[39] = target: Aldo-keto reductase family 1 member C2 (Homo sapiens) (UniProt P52895); conditions: A549, Lysate
Description: Binding affinity to AKR1C2 in human A549 cells lysates grown on SILAC media at 10 uM incubated for 1 hr by LC-MS/MS analysis relative to untreated control

[40] = target: WD repeat and HMG-box DNA-binding protein 1 (Homo sapiens) (UniProt O75717); conditions: A549, Lysate
Description: Binding affinity to WDHD1 in human A549 cells lysates grown on SILAC media at 10 uM incubated for 1 hr by LC-MS/MS analysis relative to untreated control

[41] = target: Glutamate--cysteine ligase regulatory subunit (Homo sapiens) (UniProt P48507); conditions: A549, Lysate
Description: Binding affinity to GCLM in human A549 cells lysates grown on SILAC media at 10 uM incubated for 1 hr by LC-MS/MS analysis relative to untreated control

[42] = target: Polyubiquitin-B (Homo sapiens) (UniProt P0CG47); conditions: A549, Lysate, pooled result: one value given for 5 cell lines, strains, targets or settings
Description: Binding affinity to UBB in human A549 cells lysates grown on SILAC media at 10 uM incubated for 1 hr by LC-MS/MS analysis relative to untreated control

[43] = target: Perilipin-3 (Homo sapiens) (UniProt O60664); conditions: A549, Lysate
Description: Binding affinity to PLIN3 in human A549 cells lysates grown on SILAC media at 10 uM incubated for 1 hr by LC-MS/MS analysis relative to untreated control

[44] = target: SAFB-like transcription modulator (Homo sapiens) (UniProt Q9NWH9); conditions: A549, Lysate

Chain of Cytoskeleton-associated protein 4 (Homo sapiens) (Q07065 whole entry): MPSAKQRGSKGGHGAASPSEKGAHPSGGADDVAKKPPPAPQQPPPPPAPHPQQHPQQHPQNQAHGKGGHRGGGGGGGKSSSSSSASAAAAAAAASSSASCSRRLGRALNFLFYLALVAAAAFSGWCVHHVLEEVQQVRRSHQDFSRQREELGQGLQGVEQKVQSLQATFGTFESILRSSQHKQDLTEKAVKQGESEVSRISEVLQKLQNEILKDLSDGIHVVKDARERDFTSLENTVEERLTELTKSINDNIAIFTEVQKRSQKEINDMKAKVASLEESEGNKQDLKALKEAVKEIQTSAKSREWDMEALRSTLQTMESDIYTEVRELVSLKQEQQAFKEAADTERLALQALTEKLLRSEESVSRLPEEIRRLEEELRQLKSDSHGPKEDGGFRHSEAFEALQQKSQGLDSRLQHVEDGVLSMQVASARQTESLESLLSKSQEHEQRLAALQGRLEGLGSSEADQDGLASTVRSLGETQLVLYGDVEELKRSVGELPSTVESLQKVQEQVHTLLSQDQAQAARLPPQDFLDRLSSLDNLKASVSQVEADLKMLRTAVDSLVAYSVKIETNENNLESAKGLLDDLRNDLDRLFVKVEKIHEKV
Chain of Mitochondrial carrier homolog 2 (Homo sapiens) (Q9Y6C9 whole entry): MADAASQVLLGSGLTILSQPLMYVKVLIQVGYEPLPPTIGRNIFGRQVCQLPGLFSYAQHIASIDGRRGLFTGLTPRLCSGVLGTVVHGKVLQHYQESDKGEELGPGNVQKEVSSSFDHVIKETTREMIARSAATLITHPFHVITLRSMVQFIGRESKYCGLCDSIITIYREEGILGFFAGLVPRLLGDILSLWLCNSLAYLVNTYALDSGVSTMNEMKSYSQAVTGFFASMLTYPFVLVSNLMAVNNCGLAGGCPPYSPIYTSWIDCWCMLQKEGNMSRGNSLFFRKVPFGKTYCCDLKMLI
Chain of Prostaglandin E synthase 2 (Homo sapiens) (Q9H7Z7 whole entry): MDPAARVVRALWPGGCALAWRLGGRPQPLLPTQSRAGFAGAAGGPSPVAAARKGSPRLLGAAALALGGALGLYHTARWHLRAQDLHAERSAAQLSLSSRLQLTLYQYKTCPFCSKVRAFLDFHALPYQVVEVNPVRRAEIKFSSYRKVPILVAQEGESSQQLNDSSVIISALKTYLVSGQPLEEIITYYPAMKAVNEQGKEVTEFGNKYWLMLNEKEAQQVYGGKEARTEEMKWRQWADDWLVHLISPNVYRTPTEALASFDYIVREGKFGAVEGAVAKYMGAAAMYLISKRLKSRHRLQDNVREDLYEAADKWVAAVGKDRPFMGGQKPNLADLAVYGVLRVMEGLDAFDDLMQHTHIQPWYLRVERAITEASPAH
Chain of Mitochondrial import receptor subunit TOM40 homolog (Homo sapiens) (O96008 whole entry): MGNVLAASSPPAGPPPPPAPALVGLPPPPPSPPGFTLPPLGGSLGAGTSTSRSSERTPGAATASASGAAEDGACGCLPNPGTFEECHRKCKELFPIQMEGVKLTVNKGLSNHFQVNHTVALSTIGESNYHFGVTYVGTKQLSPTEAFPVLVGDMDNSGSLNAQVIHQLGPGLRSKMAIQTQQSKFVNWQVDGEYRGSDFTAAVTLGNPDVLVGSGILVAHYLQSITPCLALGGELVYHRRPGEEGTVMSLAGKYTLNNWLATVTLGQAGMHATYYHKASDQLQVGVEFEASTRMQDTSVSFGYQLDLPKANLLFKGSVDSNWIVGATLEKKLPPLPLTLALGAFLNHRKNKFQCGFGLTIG
Chain of Sarcoplasmic/endoplasmic reticulum calcium ATPase 2 (Homo sapiens) (P16615 whole entry): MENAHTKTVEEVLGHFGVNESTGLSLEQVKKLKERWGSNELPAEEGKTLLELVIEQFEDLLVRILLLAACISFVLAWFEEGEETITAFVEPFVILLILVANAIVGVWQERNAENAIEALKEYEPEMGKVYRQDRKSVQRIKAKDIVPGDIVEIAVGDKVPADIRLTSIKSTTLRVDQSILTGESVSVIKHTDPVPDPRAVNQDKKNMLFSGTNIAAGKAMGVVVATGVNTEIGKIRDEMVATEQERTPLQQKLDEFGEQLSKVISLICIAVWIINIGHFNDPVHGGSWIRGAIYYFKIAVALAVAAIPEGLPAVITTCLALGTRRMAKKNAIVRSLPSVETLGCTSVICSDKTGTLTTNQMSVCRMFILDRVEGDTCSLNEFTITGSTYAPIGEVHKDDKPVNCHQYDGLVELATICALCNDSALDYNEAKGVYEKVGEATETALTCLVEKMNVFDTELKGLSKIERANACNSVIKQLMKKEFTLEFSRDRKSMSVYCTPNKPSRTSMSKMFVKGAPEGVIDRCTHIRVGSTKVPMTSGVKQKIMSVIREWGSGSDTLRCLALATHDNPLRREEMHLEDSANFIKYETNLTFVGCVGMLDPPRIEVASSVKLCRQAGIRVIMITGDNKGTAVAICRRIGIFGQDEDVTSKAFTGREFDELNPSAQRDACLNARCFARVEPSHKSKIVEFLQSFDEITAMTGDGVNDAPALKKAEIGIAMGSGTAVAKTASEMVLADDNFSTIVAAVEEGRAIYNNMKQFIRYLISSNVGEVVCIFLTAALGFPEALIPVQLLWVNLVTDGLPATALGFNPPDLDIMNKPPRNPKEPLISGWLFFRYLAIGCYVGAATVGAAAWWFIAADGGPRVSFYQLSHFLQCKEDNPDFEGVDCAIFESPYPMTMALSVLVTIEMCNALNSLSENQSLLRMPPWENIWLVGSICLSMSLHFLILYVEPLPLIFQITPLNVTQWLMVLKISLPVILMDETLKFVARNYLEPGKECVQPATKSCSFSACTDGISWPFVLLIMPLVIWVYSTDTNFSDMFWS
Chain of Non-selective voltage-gated ion channel VDAC3 (Homo sapiens) (Q9Y277 whole entry): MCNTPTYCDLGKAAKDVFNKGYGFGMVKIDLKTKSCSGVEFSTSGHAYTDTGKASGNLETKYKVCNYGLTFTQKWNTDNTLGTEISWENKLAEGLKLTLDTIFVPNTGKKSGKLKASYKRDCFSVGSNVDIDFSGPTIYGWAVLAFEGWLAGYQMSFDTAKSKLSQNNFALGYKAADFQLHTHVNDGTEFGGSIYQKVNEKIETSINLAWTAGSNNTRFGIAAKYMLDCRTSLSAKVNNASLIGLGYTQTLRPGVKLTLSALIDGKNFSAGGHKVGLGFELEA
Chain of Non-selective voltage-gated ion channel VDAC2 (Homo sapiens) (P45880 whole entry): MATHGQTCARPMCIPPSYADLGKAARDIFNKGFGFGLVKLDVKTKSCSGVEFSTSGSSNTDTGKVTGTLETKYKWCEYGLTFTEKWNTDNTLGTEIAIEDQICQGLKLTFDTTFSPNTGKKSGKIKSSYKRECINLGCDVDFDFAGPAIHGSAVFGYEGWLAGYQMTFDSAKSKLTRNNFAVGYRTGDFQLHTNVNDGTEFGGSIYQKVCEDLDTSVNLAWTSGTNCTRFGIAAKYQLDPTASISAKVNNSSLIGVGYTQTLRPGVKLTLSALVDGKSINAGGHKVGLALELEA
Chain of Glucocorticoid receptor (Homo sapiens) (P04150 whole entry): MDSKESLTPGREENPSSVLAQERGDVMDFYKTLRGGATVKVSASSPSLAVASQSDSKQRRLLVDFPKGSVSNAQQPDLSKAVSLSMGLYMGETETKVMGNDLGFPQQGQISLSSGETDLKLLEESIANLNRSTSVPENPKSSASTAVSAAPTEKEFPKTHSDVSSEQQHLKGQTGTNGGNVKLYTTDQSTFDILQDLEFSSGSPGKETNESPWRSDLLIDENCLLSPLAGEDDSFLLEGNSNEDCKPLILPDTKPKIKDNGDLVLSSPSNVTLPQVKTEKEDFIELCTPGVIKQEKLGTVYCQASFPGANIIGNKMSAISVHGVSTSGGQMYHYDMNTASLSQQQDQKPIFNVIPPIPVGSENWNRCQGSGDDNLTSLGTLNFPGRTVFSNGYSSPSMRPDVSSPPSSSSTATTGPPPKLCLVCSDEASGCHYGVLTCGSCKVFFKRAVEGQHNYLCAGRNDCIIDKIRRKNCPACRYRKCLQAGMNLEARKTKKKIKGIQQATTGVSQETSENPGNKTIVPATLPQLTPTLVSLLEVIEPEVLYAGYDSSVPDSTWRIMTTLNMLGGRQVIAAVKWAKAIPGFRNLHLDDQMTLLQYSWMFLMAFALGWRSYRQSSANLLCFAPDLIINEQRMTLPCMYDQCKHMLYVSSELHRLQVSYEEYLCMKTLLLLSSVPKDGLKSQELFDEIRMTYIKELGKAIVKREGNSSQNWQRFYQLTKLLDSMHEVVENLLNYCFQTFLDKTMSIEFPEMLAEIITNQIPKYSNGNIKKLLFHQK
Chain of Minor histocompatibility antigen H13 (Homo sapiens) (Q8TCT9 whole entry): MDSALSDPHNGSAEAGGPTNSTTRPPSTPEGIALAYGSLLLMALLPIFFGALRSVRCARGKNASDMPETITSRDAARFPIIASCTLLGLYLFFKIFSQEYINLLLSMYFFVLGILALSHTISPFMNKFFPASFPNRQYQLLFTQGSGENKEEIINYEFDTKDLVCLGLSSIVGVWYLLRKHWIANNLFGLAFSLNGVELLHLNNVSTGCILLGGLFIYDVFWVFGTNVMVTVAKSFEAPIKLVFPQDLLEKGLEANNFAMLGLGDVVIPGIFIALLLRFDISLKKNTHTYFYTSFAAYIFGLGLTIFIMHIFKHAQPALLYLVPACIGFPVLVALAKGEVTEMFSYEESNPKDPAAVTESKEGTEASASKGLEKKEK
Chain of Cytochrome b5 type B (Homo sapiens) (O43169 whole entry): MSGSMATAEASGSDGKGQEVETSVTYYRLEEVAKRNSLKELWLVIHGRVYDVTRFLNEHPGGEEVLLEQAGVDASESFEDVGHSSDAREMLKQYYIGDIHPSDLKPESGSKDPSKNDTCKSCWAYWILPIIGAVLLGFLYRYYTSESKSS
Chain of MKI67 FHA domain-interacting nucleolar phosphoprotein (Homo sapiens) (Q9BYG3 whole entry, the tested form may be a part): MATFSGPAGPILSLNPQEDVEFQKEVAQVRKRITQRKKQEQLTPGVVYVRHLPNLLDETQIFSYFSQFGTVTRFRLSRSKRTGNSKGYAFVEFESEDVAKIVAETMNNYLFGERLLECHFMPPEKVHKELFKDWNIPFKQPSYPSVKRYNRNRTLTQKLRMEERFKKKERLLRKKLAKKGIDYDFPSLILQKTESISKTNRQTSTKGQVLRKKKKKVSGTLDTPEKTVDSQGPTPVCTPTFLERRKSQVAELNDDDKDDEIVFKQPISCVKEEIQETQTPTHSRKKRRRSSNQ

SMILES: C#CCOC(=O)/C(C)=C(C)\C=C\[C@](C)(O)[C@H]1CC[C@H]2[C@@H]3[C@@H]4O[C@@H]4[C@@]4(O)CC=CC(=O)[C@]4(C)[C@H]3CC[C@@]21C
- Activity (SH-SY5Y [1]): 40%
- log2FC [2]: 1.62
- log2FC [3]: 1.08
- log2FC [4]: 2.08
- Activity [5]: Active
- log2FC [6]: 1.27
- log2FC [7]: 2.34
- log2FC [8]: 3.99
- log2FC [9]: 1.86
- log2FC [10]: 1.18
- log2FC [11]: 2.99
- log2FC [12]: 1.96
- log2FC [13]: 3.09
- log2FC [14]: 1.875
- Activity (SH-SY5Y [15]): 40%
- log2FC [16]: 4.11
- log2FC [17]: 3.01
- log2FC [18]: 1.63
- log2FC [19]: 2.16
- log2FC [20]: 1.16
- log2FC [21]: 1.41
- log2FC [22]: 3.3
- log2FC [23]: 3.52
- log2FC [24]: 7.1
- log2FC [25]: 8.71
- log2FC [26]: 1.38
- Activity (SH-SY5Y [27]): 38%
- log2FC [28]: 2.25

SMILES: CC#C[C@]1(O)CC[C@H]2[C@@H]3CCC4=CC(=O)CCC4=C3[C@@H](c3ccc(N(C)C)cc3)C[C@@]21C [MIFEPRISTONE]
- Activity (SH-SY5Y [1]): 50%

SMILES: CC1=C(C)C(=O)O[C@@H]([C@](C)(O)[C@H]2CC[C@H]3[C@@H]4[C@@H]5O[C@@H]5[C@@]5(O)CC=CC(=O)[C@]5(C)[C@H]4CC[C@]23C)C1 [WITHANOLIDE A]
- Activity (SH-SY5Y [1]): 46%
- Activity (SH-SY5Y [15]): 47%
- Activity (SH-SY5Y [27]): 46%

SMILES: C[C@@H]1C[C@H]2[C@@H]3CCC4=CC(=O)C=C[C@]4(C)[C@@]3(F)[C@@H](O)C[C@]2(C)[C@@]1(O)C(=O)CO [DEXAMETHASONE]
- Activity (SH-SY5Y [1]): 16%

SMILES: C#CCO/N=C1/C=C[C@]2(C)[C@H]3CC[C@]4(C)[C@@H]([C@@](C)(O)[C@H]5CC(C)=C(C)C(=O)O5)CC[C@H]4[C@@H]3[C@@H]3O[C@@H]3[C@@]2(O)C1
- Activity (SH-SY5Y [1]): 55%

SMILES: C#CCOC(=O)/C(C)=C(C)\C=C\[C@](C)(O)[C@H]1CC[C@H]2[C@@H]3[C@@H]4O[C@@H]4C4=CC=CC(=O)[C@]4(C)[C@H]3CC[C@@]21C
- log2FC [29]: 2.46
- log2FC [30]: 3.04
- Activity (SH-SY5Y [1]): 41%
- log2FC [31]: 2.45
- log2FC [32]: 2.14
- log2FC [33]: 1.88
- log2FC [34]: 1.25
- log2FC [35]: 1.28
- log2FC [36]: 1.89
- log2FC [37]: 4.61
- log2FC [38]: 3.66
- log2FC [39]: 1.02
- log2FC [10]: 2.96
- log2FC [40]: 1.74
- log2FC [11]: 1.79
- log2FC [12]: 2.03
- log2FC [41]: 2.81
- Activity (SH-SY5Y [15]): 44%
- log2FC [17]: 4.38
- log2FC [19]: 2.05
- log2FC [22]: 4.85
- log2FC [26]: 2.11
- log2FC [42]: 1.47
- Activity (SH-SY5Y [27]): 40%

SMILES: CC1=C(/C=C/C(C)=C/C=C/C(C)=C/C(=O)O)C(C)(C)CCC1 [TRETINOIN]
- Activity (SH-SY5Y [1]): 45%

SMILES: C#CCO/N=C1\CCC[C@]2(O)[C@H]3O[C@H]3[C@H]3[C@@H]4CC[C@H]([C@@](C)(O)[C@H]5CC(C)=C(C)C(=O)O5)[C@@]4(C)CC[C@@H]3[C@@]12C
- Activity (SH-SY5Y [1]): 48%

SMILES: C#CCO/N=C1/CC[C@]2(C)[C@H]3CC[C@]4(C)[C@@H]([C@@](C)(O)[C@H]5CC(C)=C(C)C(=O)O5)CC[C@H]4[C@@H]3[C@@H]3O[C@@H]3[C@@]2(O)C1
- Activity (SH-SY5Y [1]): 50%

SMILES: C#CCO/N=C1\C=CC[C@]2(O)[C@H]3O[C@H]3[C@H]3[C@@H]4CC[C@H]([C@@](C)(O)[C@H]5CC(C)=C(C)C(=O)O5)[C@@]4(C)CC[C@@H]3[C@@]12C
- Activity (SH-SY5Y [1]): 58%
- Activity [5]: Active
- log2FC [43]: 0.964
- log2FC [37]: 7.33
- Activity (SH-SY5Y [15]): 33%
- log2FC [16]: 1.16
- log2FC [44]: 2.27
- log2FC [23]: 2.25
- log2FC [25]: 3.73
- Activity (SH-SY5Y [27]): 37%
